Results on 26 compounds are retold here after US10065954B2, “Substituted imidazo[4,5-c]pyridines as SSAO inhibitors” (Proximagen Limited, priority 2014, dated 2018).

The assay addresses T1, purified recombinantly expressed human SSAO (Homo sapiens, UniProt Q16853).
T1 construct: made in house
T1 sequence (Q16853 1-763): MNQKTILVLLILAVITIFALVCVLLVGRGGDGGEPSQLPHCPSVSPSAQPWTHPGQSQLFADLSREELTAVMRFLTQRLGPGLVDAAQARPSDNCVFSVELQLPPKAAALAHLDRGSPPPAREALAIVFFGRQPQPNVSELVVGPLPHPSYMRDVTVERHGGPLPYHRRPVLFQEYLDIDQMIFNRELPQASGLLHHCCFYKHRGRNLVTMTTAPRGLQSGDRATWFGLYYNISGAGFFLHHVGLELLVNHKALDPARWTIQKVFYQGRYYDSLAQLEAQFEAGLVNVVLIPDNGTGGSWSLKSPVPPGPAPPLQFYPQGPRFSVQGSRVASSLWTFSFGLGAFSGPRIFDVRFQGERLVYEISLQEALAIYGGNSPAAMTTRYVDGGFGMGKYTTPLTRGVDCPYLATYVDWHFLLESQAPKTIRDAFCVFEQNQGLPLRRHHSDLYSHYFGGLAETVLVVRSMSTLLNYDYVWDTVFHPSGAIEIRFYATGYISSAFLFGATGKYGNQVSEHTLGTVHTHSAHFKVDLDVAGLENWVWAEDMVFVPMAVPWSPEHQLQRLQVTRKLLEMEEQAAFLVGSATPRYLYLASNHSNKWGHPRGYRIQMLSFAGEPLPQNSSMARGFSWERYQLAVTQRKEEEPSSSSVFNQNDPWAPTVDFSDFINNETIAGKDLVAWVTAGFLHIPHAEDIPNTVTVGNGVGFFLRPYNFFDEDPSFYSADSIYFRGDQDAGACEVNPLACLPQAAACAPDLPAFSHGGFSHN
Briefly: SSAO enzyme inhibition assay (benzylamine substrate; hydrogen peroxide/HRP-coupled or 14C-aldehyde detection). The settings on record: SSAO inhibitory activity; recombinant human SSAO, RT. Type of assay: biochemical. The protocol: All primary assays were performed at RT. with purified recombinantly expressed human SSAO. Enzyme was prepared essentially as described in Öhman et al. (Protein Expression and Purification 46 (2006) 321-331). In addition, secondary- and selectivity assays were performed using SSAO prepared from various tissues or purified rat recombinant SSAO. The enzyme activity was assayed with benzylamine as substrate by measuring either benzaldehyde production, using ^14C-labeled substrate, or by utilizing the production of hydrogen peroxide in a horseradish peroxidase (HRP) coupled reaction. Briefly, test compounds were dissolved in dimethyl sulfoxide (DMSO) to a concentration of 10 mM. Dose-response measurements were assayed by either creating 1:10 serial dilutions in DMSO to produce a 7 point curve or by making 1:3 serial dilutions in DMSO to produce 11 point curves. The top concentrations were adjusted depending on the potency of the compounds and subsequent dilution in reaction buffer yielded a final DMSO concentration ≤2%.
In a horseradish peroxidase (HRP) coupled reaction, hydrogen peroxide oxidation of 10-acetyl-3,7-dihydroxyphenoxazine produced resorufin, which is a highly fluorescent compound (Zhout and Panchuk-Voloshina. Analytical Biochemistry 253 (1997) 169-174; Amplex® Red Hydrogen Peroxide/peroxidase Assay kit, Invitrogen A22188). Enzyme and compounds in 50 mM sodium phosphate, pH 7.4 were set to pre-incubate in flat-bottomed microtiter plates for approximately 15 min before initiating the reaction by addition of a mixture of HRP, benzylamine and Amplex reagent. Benzylamine concentration was fixed at a concentration corresponding to the Michaelis constant, determined using standard procedures. Fluorescence intensity was then measured at several time points during 1-2 h, exciting at 544 nm and reading the emission at 590 nm. For the human SSAO assay final concentrations of the reagents in the assay wells were: SSAO enzyme 1 ug/mL, benzylamine 100 uM, Amplex reagent 20 uM, HRP 0.1 U/mL and varying concentrations of test compound. The inhibition was measured as % decrease of the signal compared to a control without inhibitor (only diluted DMSO). The background signal from a sample containing no SSAO enzyme was subtracted from all data points. Data was fitted to a four parameter logistic model and IC50 values were calculated using the GraphPad Prism 4 or XLfit 4 programs.
SSAO activity was assayed using […] benzylamine and analysed by measuring radioactive benzaldehyde. In a white 96-well optiplate (Packard), 20 uL of diluted test compound was pre-incubated at RT with 20 uL SSAO enzyme for approximately 15 min with continuous agitation. All dilutions were made with PBS. The reaction was initiated by adding 20 uL of the benzylamine substrate solution containing Benzylamine hydrochloride (CFA589, GE Healthcare). The plate was incubated for 1 h as above after which the reaction was stopped by acidification (10 uL 1M aq HCl). Then 90 uL Micro Scint-E solution (Perkin-Elmer) was added to each well and the plate was continuously mixed for 15 min. Phase separation occurred instantly and activity was read in a Topcount scintillation counter (Perkin-Elmer). In the final reaction well, the human recombinant SSAO concentration was 10 ug/mL. In order to optimize sensitivity, the substrate concentration was decreased as compared to the HRP coupled assay in order to get a higher fraction of radioactive product. In the human SSAO assay, benzylamine concentration was 40 uM (0.2uCi/mL). Data was analysed as above.

A word on the IC50: it is the midpoint of a concentration-inhibition curve. On to `Fc1ccc(-n2c(-c3ccc(N4CCOCC4)nc3)nc3ccncc32)nc1` [Compound 1, 4-{5-[3-(5-Fluoropyridin-2-yl)-3H-imidazo[4,5-c]pyridin-2-yl]pyridin-2-yl}morpholine], for which the IC50 fell in the range of 50 to 200 nM. Consider `Cc1cc(N2CCOCC2)ncc1-c1nc2ccncc2n1-c1ccc(F)cc1F` [Compound 2, 4-{5-[3-(2,4-Difluorophenyl)-3H-imidazo[4,5-c]pyridin-2-yl]-4-methylpyridin-2-yl}morpholine], for which the IC50 is below 50 nM. Then `Fc1ccc(-n2c(-c3cnc(NC4CCOCC4)nc3)nc3ccncc32)c(F)c1` [Compound 3, 5-[3-(2,4-Difluorophenyl)-3H-imidazo[4,5-c]pyridin-2-yl]-N-(oxan-4-yl)pyrimidin-2-amine], with 50 to 200 nM; and `CCN(CC)c1ncc(-c2nc3ccncc3n2-c2ccc(C)nc2)cn1` [Compound 4, N,N-Diethyl-5-[3-(6-methylpyridin-3-yl)-3H-imidazo[4,5-c]pyridin-2-yl]pyrimidin-2-amine], with 50 to 200 nM.

As to `CCN(CC)c1ncc(-c2nc3ccncc3n2-c2ccc(F)cc2)cn1` [Compound 5, N,N-Diethyl-5-[3-(4-fluorophenyl)-3H-imidazo[4,5-c]pyridin-2-yl]pyrimidin-2-amine], the IC50 is below 50 nM. For `CCN(CC)c1ncc(-c2nc3ccncc3n2-c2ccc(C)cc2)cn1` [Compound 6, N,N-Diethyl-5-[3-(4-methylphenyl)-3H-imidazo[4,5-c]pyridin-2-yl]pyrimidin-2-amine], the IC50 was below 50 nM. Then `CCN(CC)c1ncc(-c2nc3ccncc3n2-c2ccc(C)cn2)cn1` [Compound 7, N,N-Diethyl-5-[3-(5-methylpyridin-2-yl)-3H-imidazo[4,5-c]pyridin-2-yl]pyrimidin-2-amine], with 50 to 200 nM. Regarding `Cc1ccc(-n2c(-c3cnc(N4CCOCC4)cc3C)nc3ccncc32)c(F)c1` [Compound 8, 4-{5-[3-(2-Fluoro-4-methylphenyl)-3H-imidazo[4,5-c]pyridin-2-yl]-4-methylpyridin-2-yl}morpholine], the IC50 is below 50 nM. Then `Cc1cc(N2CCOCC2)ncc1-c1nc2ccncc2n1-c1ccc(Cl)cc1` [Compound 9, 4-{5-[3-(4-Chlorophenyl)-3H-imidazo[4,5-c]pyridin-2-yl]-4-methylpyridin-2-yl}morpholine], with below 50 nM; and `Cc1ccc(-n2c(-c3ccc(N4CCC(F)(F)CC4)nc3)nc3ccncc32)cc1` [Compound 11, 2-(4,4-Difluoropiperidin-1-yl)-5-[3-(4-methylphenyl)-3H-imidazo[4,5-c]pyridin-2-yl]pyridine], with below 50 nM. The same measure for `Cc1ccc(-n2c(-c3cnc(N4CCOCC4)cc3C)nc3ccncc32)nc1` [Compound 13, 4-{4-Methyl-5-[3-(5-methylpyridin-2-yl)-3H-imidazo[4,5-c]pyridin-2-yl]pyridin-2-yl}morpholine]: 50 to 200 nM; for `Cc1cc(N2CCOCC2)ncc1-c1nc2ccncc2n1-c1ccc(F)cn1` [Compound 14, 4-{5-[3-(5-Fluoropyridin-2-yl)-3H-imidazo[4,5-c]pyridin-2-yl]-4-methylpyridin-2-yl}morpholine; tris(trifluoroacetic acid)]: 200 to 1200 nM.

Regarding `Fc1ccc(-n2c(-c3ccc(N4CCSCC4)nc3)nc3ccncc32)cc1` [Compound 16, 4-{5-[3-(4-Fluorophenyl)-3H-imidazo[4,5-c]pyridin-2-yl]pyridin-2-yl}thiomorpholine], the IC50 was below 50 nM. Turning to `Fc1ccc(-n2c(-c3ccc(NCCN4CCOCC4)nc3)nc3ccncc32)cc1` [Compound 20, 5-[3-(4-Fluorophenyl)-3H-imidazo[4,5-c]pyridin-2-yl]-N-[2-(morpholin-4-yl)ethyl]pyridin-2-amine], the IC50 was below 50 nM. As for `Fc1ccc(-n2c(-c3ccc(NC4CC4)nc3)nc3ccncc32)cc1` [Compound 22, N-Cyclopropyl-5-[3-(4-fluorophenyl)-3H-imidazo[4,5-c]pyridin-2-yl]pyridin-2-amine], the IC50 is below 50 nM.

With `Cc1ccc(-n2c(-c3ccc(NC4CC4)nc3)nc3ccncc32)cn1` [Compound 23, N-Cyclopropyl-5-[3-(6-methylpyridin-3-yl)-3H-imidazo[4,5-c]pyridin-2-yl]pyridin-2-amine], the 50% inhibitory concentration (IC50) was in the range of 200 to 1200 nM. Then `Cc1ccc(-n2c(-c3ccc(NC(C)C)nc3)nc3ccncc32)cc1` [Compound 24, 5-[3-(4-Methylphenyl)-3H-imidazo[4,5-c]pyridin-2-yl]-N-(propan-2-yl)pyridin-2-amine], with below 50 nM.

In the case of `Cc1ccc(-n2c(-c3cnc(N4CCCC4)nc3)nc3ccncc32)cn1` [Compound 25, 5-[3-(6-Methylpyridin-3-yl)-3H-imidazo[4,5-c]pyridin-2-yl]-2-(pyrrolidin-1-yl)pyrimidine], the IC50 lay within 50 to 200 nM. Then `Cc1ccc(-n2c(-c3cnc(N4CCCC4)nc3)nc3ccncc32)nc1` [Compound 26, 5-[3-(5-Methylpyridin-2-yl)-3H-imidazo[4,5-c]pyridin-2-yl]-2-(pyrrolidin-1-yl)pyrimidine], with 50 to 200 nM. Regarding `Fc1ccc(-n2c(-c3cnc(N4CCCC4)nc3)nc3ccncc32)nc1` [Compound 27, 5-[3-(5-Fluoropyridin-2-yl)-3H-imidazo[4,5-c]pyridin-2-yl]-2-(pyrrolidin-1-yl)pyrimidine], the IC50 lay within 50 to 200 nM. With `Cc1ccc(-n2c(-c3ccc(N4CCOCC4)cc3)nc3ccncc32)cn1` [Compound 28, 4-{4-[3-(6-Methylpyridin-3-yl)-3H-imidazo[4,5-c]pyridin-2-yl]phenyl}morpholine], the IC50 lay in the range of 50 to 200 nM. The same measure for `Cc1ccc(-n2c(-c3cnc(N4CCCC4)nc3)nc3ccncc32)cc1` [Compound 29, 5-[3-(4-Methylphenyl)-3H-imidazo[4,5-c]pyridin-2-yl]-2-(pyrrolidin-1-yl)pyrimidine]: below 50 nM; for `Cc1ccc(-n2c(-c3ccc(N4CCOCC4)cc3)nc3ccncc32)nc1` [Compound 30, 4-{4-[3-(5-Methylpyridin-2-yl)-3H-imidazo[4,5-c]pyridin-2-yl]phenyl}morpholine]: 200 to 1200 nM. Turning to `Cc1ccc(-n2c(-c3ccc(N4CCCC4)cc3)nc3ccncc32)cn1` [Compound 31, 2-Methyl-5-{2-[4-(pyrrolidin-1-yl)phenyl]-3H-imidazo[4,5-c]pyridin-3-yl}pyridine], the IC50 was below 50 nM.

For the compound `Cc1ccc(-n2c(-c3ccc(N4CCCC4)cc3F)nc3ccncc32)cn1` [Compound 32, 5-{2-[2-Fluoro-4-(pyrrolidin-1-yl)phenyl]-3H-imidazo[4,5-c]pyridin-3-yl}-2-methylpyridine], the IC50 was below 50 nM.

Regarding `Cc1ccc(-n2c(-c3ccc(N4CCOCC4)cc3F)nc3ccncc32)cn1` [Compound 33, 4-{3-Fluoro-4-[3-(6-methylpyridin-3-yl)-3H-imidazo[4,5-c]pyridin-2-yl]phenyl}morpholine], the IC50 is 50 to 200 nM.
